In one series the target is T1, MEK1 (Homo sapiens, UniProt Q02750).
T1 construct: purchased Thermo Fisher Scientific Inc. (MEK1, CRAF); Carna Biosciences, Inc. (ERK2)
The series is described as follows: MEK1-inhibiting activity, fluorescent polarization method (CRAF/MEK1/ERK2 cascade, IMAP). Format: biochemical. The settings on record: Table 3; read-out: MEK1 IC50. On the procedure:
The MEK1-inhibiting activity of the compounds listed in Table 3 below were evaluated by the fluorescent polarization method as described below.

Another series addresses T2, BRAF (Homo sapiens, UniProt P15056).
T2 construct: purchased Eurofins Genomics KK; (BRAF); Thermo Fisher Scientific Inc. (MEK1)
The series is described as follows: BRAF-inhibiting activity, time-resolved fluorescence-fluorescence resonance energy transfer assay. Format: biochemical. The settings on record: read-out: BRAF IC50; Table 3. The procedure: The BRAF-inhibiting activity of the compounds listed in Table 3 below was evaluated by the time-resolved fluorescence-fluorescence resonance energy transfer assay as described below.

Another series deals with A549. The series is described as follows: Cell proliferation-inhibiting activity (ATP in viable cells, CellTiter-Glo), A549. In kind it is cell-based, human. The conditions noted are these: A549, 96 h; human lung cancer cells, 4 days; read-out: A549 IC50. In general terms: ATP-based viability assays read luminescence as a measure of living cells.
A further series deals with Calu-6. The series is described as follows: Cell proliferation-inhibiting activity (ATP in viable cells, CellTiter-Glo), Calu-6. Format: cell-based, human. The settings on record: Calu-6, 96 h; human lung cancer cells, 4 days; read-out: Calu-6 IC50.
Another series relates to NCI-H2122. The series is described as follows: Cell proliferation-inhibiting activity (ATP in viable cells, CellTiter-Glo), NCI-H2122. The conditions noted are these: NCI-H2122, 96 h; human lung cancer cells, 4 days; read-out: NCI-H2122 IC50. In kind it is cell-based, human.
Series [1] can be described thus: Human liver microsome stability. Format: in vitro ADME. The settings on record: human liver microsomes, pH 7.4. On the technique in general: Liver microsomes are a subcellular fraction often used to study metabolism.

T2 sequence (P15056 417-766 limits assumed): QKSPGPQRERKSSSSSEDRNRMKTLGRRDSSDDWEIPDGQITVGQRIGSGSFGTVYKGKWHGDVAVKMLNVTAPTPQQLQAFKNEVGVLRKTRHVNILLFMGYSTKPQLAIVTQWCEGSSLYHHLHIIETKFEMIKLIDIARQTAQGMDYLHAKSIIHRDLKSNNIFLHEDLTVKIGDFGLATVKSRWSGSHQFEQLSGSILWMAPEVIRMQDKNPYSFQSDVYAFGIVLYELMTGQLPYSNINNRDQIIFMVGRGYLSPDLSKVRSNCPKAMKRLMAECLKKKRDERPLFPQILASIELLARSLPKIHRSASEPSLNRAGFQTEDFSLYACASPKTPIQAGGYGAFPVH
T1 sequence (Q02750 whole entry): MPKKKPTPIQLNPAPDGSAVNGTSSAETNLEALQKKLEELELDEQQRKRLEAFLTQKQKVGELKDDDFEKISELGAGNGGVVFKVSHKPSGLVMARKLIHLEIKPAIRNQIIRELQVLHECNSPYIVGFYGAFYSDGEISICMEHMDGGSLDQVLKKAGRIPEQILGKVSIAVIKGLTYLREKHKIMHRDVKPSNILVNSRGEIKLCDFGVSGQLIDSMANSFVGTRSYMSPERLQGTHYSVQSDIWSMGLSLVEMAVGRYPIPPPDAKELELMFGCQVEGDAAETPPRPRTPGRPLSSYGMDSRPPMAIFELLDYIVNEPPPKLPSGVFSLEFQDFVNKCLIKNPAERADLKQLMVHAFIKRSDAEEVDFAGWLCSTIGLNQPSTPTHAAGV

As usually defined, the IC50 is the concentration at which inhibition is half-maximal. In general, microsomal CLint refers to the capacity of the preparation to metabolise the compound, expressed as a volume cleared per time. Low values mean slow turnover, high ones rapid turnover. In the case of `NC(=O)c1cc(Cc2ccnc(NS(=O)(=O)NC3CC3)c2F)c(F)c(F)c1Nc1ccc(I)cc1F` [Compound A-30, 5-[[2-(cyclopropylsulfamoylamino)-3-fluoropyridin-4-yl]methyl]-3,4-difluoro-2-(2-fluoro-4-iodoanilino)benzamide], the half-maximal inhibitory concentration (IC50) came to 9 nM on MEK1; 8 nM at BRAF; 3 nM in the series on A549; 8 nM in the series with Calu-6; 1 nM with NCI-H2122. In series [1], this compound registered a microsomal CLint at 0.99 µM of 10 µL/min/mg.
`Cn1c(Nc2ccc(I)cc2F)c(C(=O)NC2CC2)cc(Cc2ccnc(NS(=O)(=O)NC3CC3)c2F)c1=O` [Compound J-6, N-Cyclopropyl-5-[[2-(cyclopropylsulfamoylamino)-3-fluoropyridin-4-yl]methyl]-2-(2-fluoro-4-iodoanilino)-1-methyl-6-oxopyridine-3-carboxamide]: the concentration for half-maximal inhibition (IC50) at MEK1 came to 86 nM; at BRAF, 7 nM; in the series on A549, 14 nM; in the series on Calu-6, 27 nM; in the series on NCI-H2122, 7 nM. The same compound came in with an intrinsic metabolic clearance (microsomal CLint) at 0.99 µM in series [1] of 45 µL/min/mg.
For `CNS(=O)(=O)Nc1cccc(Cc2cc(C(=O)NC3CC3)c(Nc3ccc(I)cc3F)c(F)c2F)c1` [Compound C-6, N-Cyclopropyl-3,4-difluoro-2-(2-fluoro-4-iodoanilino)-5-[[3-(methylsulfamoylamino)phenyl]methyl]benzamide], the IC50 is 268 nM at MEK1; 9 nM at BRAF; 6 nM in the series with A549; 31 nM in the series with Calu-6; 4 nM in the series on NCI-H2122. This compound displayed a microsomal CLint at 0.99 µM in series [1] of 74 µL/min/mg.
With `CCS(=O)(=O)Nc1cccc(Cc2cc(C(N)=O)c(Nc3ccc(I)cc3Cl)c(F)c2F)c1F` [Compound E-11, 2-(2-Chloro-4-iodoanilino)-5-[[3-(ethylsulfonylamino)-2-fluorophenyl]methyl]-3,4-difluorobenzamide], the 50% inhibitory concentration (IC50) on MEK1 came out at 454 nM; at BRAF it was 5 nM; with A549 it was 6 nM; in the series on Calu-6 it was 73 nM; in the series on NCI-H2122 it was 6 nM. In addition, the microsomal CLint at 0.99 µM in series [1] worked out at 11 µL/min/mg.
Regarding `Cn1c(Nc2ccc(I)cc2F)c(C(=O)NOC(C)(C)C)cc(Cc2cccc(NS(=O)(=O)C3(C)CC3)c2F)c1=O` [Compound K-12, 2-(2-Fluoro-4-iodoanilino)-5-[2-fluoro-3-[(1-methylcyclopropyl)sulfonylamino]phenyl]methyl]-1-methyl-N-[(2-methylpropan-2-yl)oxyl-6-oxo pyridine-3-carboxamide], the half-maximal inhibitory concentration (IC50) at MEK1 worked out at 10 nM; at BRAF it was 14 nM; in the series on A549, 7 nM; in the series on Calu-6 it was 27 nM; in the series with NCI-H2122, 6 nM. In series [1], this compound yielded a microsomal CLint at 0.99 µM of 546 µL/min/mg.
Consider `CCS(=O)(=O)Nc1cccc(Cc2cc(C(=O)NOC)c(Nc3ccc(I)cc3F)c(F)c2F)c1F` [Compound E-1, 5-[[3-(ethylsulfonylamino)-2-fluorophenyl]methyl]-3,4-difluoro-2-(2-fluoro-4-iodoanilino)-N-methoxybenzamide], for which the 50% inhibitory concentration (IC50) on MEK1 worked out at 40 nM; at BRAF, 12 nM; in the series on A549, 2 nM; in the series on Calu-6, 6 nM; with NCI-H2122, 0.4 nM. The microsomal CLint at 0.99 µM in series [1] amounted to 17 µL/min/mg.
Turning to `CCS(=O)(=O)Nc1cccc(Cc2cc(C(=O)NOC(C)(C)C)c(Nc3ccc(I)cc3Cl)c(F)c2F)c1F` [Compound E-10, 2-(2-Chloro-4-iodoanilino)-5-[[3-(ethylsulfonylamino)-2-fluorophenyl]methyl]-3.4-difluoro-N-[(2-methylpropan-2-yl)oxy]benzamide], the IC50 at MEK1 was found to be 84 nM; on BRAF, 23 nM; with A549 it was 4 nM; with Calu-6, 27 nM; with NCI-H2122, 3 nM. Moreover, the microsomal CLint at 0.99 µM in series [1] stood at 51 µL/min/mg.
On to `CNC(=O)c1cc(Cc2ccnc(NS(=O)(=O)NC)c2F)c(F)c(F)c1Nc1ccc(I)cc1F` [Compound A-7, 3,4-Difluoro-2-(2-fluoro-4-iodoanilino)-5-[[3-fluoro-2-(methylsulfamoylamino)pyridin-4-yl]methyl]-N-methylbenzamide], for which the IC50 on MEK1 was determined as 18 nM; on BRAF, 5 nM; in the series on A549, 2 nM; in the series with Calu-6, 18 nM; in the series with NCI-H2122, 1 nM. The compound further returned a microsomal CLint at 0.99 µM in series [1] of 28 µL/min/mg.
Consider `CCNS(=O)(=O)Nc1nccc(Cc2cc(C(N)=O)c(Nc3ccc(I)cc3F)c(F)c2F)c1F` [Compound A-40, 5-[[2-(ethylsulfamoylamino)-3-fluoropyridin-4-yl]methyl]-3,4-d ifluoro-2-(2-fluoro-4-iodoanilino)benzamide], for which the IC50 at MEK1 is 19 nM; on BRAF it was 2 nM; with A549, 4 nM; with Calu-6, 12 nM; in the series on NCI-H2122, 2 nM. Besides, the microsomal CLint at 0.99 µM in series [1] is 2 µL/min/mg.
With `CCNS(=O)(=O)Nc1nccc(Cc2cc(C(=O)NC3CC3)c(Nc3ccc(I)cc3F)c(F)c2F)c1F` [Compound A-4, N-cyclopropyl-5-[[2-(ethylsulfamoylamino)-3-fluoropyridin-4-yl]methyl]-3,4-difluoro-2-(2-fluoro-4-iodoanilino)benzamide], the IC50 at MEK1 is 17 nM; at BRAF, 2 nM; in the series on A549, 5 nM; in the series on Calu-6 it was 7 nM; with NCI-H2122, 1 nM. This compound also had a microsomal CLint at 0.99 µM in series [1] of 21 µL/min/mg.
As for `CCNS(=O)(=O)Nc1cccc(Cc2cc(C(=O)NC3CC3)c(Nc3ccc(I)cc3F)n(C)c2=O)c1F` [Compound K-13, N-Cyclopropyl-5-[[3-(ethylsulfamoylamino)-2-fluorophenyl]methyl]-2-(2-fluoro-4-iodoanilino)-1-methyl-6-oxopyridine-3-carboxamide], the IC50 at MEK1 was 115 nM; at BRAF, 9 nM; in the series with A549, 18 nM; with Calu-6 it was 53 nM; with NCI-H2122, 13 nM. Moreover, the microsomal CLint at 0.99 µM in series [1] came out at 321 µL/min/mg.
Turning to `CNS(=O)(=O)Nc1cccc(Cc2cc(C(N)=O)c(Nc3ccc(I)cc3F)n(C)c2=O)c1F` [Compound K-1, 2-(2-Fluoro-4-iodoanilino)-5-[[2-fluoro-3-(methylsulfamoylamino)phenyl]methyl]-1-methyl-6-oxopyridine-3-carboxamide], the IC50 was 55 nM at MEK1; 3 nM on BRAF; 3 nM in the series with A549; 14 nM with Calu-6; 4 nM in the series with NCI-H2122. Besides, in series [1], the intrinsic metabolic clearance (microsomal CLint) at 0.99 µM amounted to 97 µL/min/mg.
`CCNS(=O)(=O)Nc1cccc(Cc2cc(C(N)=O)c(Nc3ccc(I)cc3F)n(C)c2=O)c1F` [Compound K-2, 5-[13-(Ethylsulfamoylamino)-2-fluorophenyl|methyl]-2-(2-fluoro-4-iodoanilino)-1-methyl-6-oxopyridine-3-carboxamide]: the IC50 on MEK1 stood at 73 nM; on BRAF, 4 nM; in the series on A549 it was 6 nM; in the series on Calu-6, 27 nM; in the series with NCI-H2122, 6 nM. Besides, the microsomal CLint at 0.99 µM in series [1] was found to be 234 µL/min/mg.
